{
  "source": "ChEMBL document CHEMBL1201862",
  "about": "“PubChem BioAssay data set” (2004)",
  "key": {"[1]": {"test": "growth suppression of beta-catenin-knockout colon cells, dose response, cell-based, HCT116, human colon tumor (AID 1045);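 further: HCT116 colon tumor cells with beta catenin knocked out; cells exposed to compound for 60 hours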", "assay_type": "functional"}, "Beta-galactosidase": {"target": "Beta-galactosidase (Escherichia coli, UniProt Q8VNN2)", "test": "beta-galactosidase enzyme inhibitors and activators, dose response, artefact control for CCR6 antagonist project, biochemical, E. coli enzyme, set 3 (AID 504712)", "assay_type": "functional"}, "[2]": {"test": "growth suppression of PTEN-null colon cells, dose response, cell-based, HCT116 PTEN knockout (AID 1047);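 further: HCT116 colon tumor cells with PTEN knocked out; cells exposed to compound for 60 hours before readout; potency for loss of cell viability measured by luminescence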", "assay_type": "functional"}, "Cytochrome P450 3A4": {"target": "Cytochrome P450 3A4 (Homo sapiens, UniProt P08684)", "sequence (P08684 whole entry)": "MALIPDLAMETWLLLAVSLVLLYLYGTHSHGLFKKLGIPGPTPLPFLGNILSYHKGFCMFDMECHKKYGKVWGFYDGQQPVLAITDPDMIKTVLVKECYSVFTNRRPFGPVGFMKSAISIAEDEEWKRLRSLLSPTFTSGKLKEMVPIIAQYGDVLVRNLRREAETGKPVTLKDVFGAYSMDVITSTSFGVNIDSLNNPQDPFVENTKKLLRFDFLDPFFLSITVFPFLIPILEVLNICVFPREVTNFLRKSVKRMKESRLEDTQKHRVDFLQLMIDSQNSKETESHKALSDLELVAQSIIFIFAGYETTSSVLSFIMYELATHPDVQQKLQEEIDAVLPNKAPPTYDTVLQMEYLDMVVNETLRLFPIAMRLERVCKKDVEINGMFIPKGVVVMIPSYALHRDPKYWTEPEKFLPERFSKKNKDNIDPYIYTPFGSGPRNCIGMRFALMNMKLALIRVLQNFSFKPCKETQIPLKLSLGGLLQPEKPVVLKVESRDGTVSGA", "details": "Potency"}, "[3]": {"test": "A cytotoxicity screen of small molecule inhibitors of the PhoP region in Salmonella typhi identified in the primary screen. [Related pubchem assays: 1850, 1864, 1985 ]", "assay_type": "functional"}, "Bcl-2-like protein 10": {"target": "T1, Bcl-2-like protein 10 (Homo sapiens, UniProt Q9HD36)", "T1 sequence (Q9HD36 whole entry)": "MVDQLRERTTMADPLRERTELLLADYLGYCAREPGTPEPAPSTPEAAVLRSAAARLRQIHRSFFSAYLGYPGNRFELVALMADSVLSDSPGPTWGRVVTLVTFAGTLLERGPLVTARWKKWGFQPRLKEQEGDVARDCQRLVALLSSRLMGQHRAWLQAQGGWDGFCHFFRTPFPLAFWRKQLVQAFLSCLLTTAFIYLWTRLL", "test": "displacers of TR3 peptide from Bcl-B, primary screen, selectivity assay for Bfl-1 inhibitor project, biochemical, fluorescence polarization, FITC-TR3 peptide (AID 748);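 further: fluorescence polarization from a fluorescein-labelled TR3 peptide binding purified Bcl-B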"}, "[4]": {"target": "DNA dC->dU-editing enzyme APOBEC-3A (Homo sapiens, UniProt P31941)", "test": "APOBEC3A DNA deaminase inhibitors, dose response, biochemical (AID 504722)", "assay_type": "functional"}, "[5]": {"target": "DNA dC->dU-editing enzyme APOBEC-3G (Homo sapiens, UniProt Q9HC16)", "sequence (Q9HC16 whole entry)": "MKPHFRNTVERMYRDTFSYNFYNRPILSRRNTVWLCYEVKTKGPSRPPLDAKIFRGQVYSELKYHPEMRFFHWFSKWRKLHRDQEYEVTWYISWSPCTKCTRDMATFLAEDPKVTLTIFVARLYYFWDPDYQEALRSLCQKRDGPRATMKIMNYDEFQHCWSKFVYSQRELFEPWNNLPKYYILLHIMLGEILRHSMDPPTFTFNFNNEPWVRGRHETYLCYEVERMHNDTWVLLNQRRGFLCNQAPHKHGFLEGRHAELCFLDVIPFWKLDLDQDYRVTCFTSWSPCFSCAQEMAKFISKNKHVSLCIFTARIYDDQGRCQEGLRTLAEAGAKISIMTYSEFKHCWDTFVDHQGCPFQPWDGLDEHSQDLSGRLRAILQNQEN", "test": "Dose Response confirmation of small molecule APOBEC3G DNA Deaminase Inhibitors via a fluorescence-based single-stranded DNA deaminase assay. [Related pubchem assays (depositor defined):AID493012, AID493028]", "assay_type": "functional"}, "[6]": {"target": "T2, Acyl-homoserine lactone acylase PvdQ (Pseudomonas aeruginosa (strain LESB58), UniProt Q9I194)", "T2 sequence (Q9I194 whole entry)": "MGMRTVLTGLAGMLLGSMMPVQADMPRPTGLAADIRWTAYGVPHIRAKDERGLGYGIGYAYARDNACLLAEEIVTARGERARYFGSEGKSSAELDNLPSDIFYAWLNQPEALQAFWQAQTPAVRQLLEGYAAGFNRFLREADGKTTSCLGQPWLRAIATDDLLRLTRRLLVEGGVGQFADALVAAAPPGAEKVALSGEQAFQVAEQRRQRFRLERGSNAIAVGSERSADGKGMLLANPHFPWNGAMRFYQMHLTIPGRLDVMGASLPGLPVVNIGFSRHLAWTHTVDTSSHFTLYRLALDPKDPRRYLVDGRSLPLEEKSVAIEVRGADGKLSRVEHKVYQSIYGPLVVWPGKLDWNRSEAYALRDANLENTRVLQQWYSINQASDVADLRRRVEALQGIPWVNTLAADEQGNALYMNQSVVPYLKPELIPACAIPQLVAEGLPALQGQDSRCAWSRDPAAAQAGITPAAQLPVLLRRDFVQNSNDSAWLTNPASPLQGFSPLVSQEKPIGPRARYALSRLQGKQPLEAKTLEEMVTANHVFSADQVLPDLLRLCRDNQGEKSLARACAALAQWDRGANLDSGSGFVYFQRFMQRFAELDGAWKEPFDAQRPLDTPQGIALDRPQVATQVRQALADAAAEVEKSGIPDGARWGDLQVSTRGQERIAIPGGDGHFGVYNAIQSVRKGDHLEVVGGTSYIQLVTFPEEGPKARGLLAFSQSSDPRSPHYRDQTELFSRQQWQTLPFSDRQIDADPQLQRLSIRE", "test": "P. aeruginosa PvdQ acylase inhibitors, dose response, biochemical, fluorescence, plate reader and imaging, cherry-picks (AID 493231)"}, "Nonstructural protein 1": {"target": "Nonstructural protein 1 (Influenza A virus, UniProt Q194T2)", "assay_type": "functional, Influenza A virus (A/California/07/2009(H1N1))"}, "[7]": {"target": "T3, Heat shock factor protein 1 (Mus musculus, UniProt P38532)", "T3 sequence (P38532 whole entry)": "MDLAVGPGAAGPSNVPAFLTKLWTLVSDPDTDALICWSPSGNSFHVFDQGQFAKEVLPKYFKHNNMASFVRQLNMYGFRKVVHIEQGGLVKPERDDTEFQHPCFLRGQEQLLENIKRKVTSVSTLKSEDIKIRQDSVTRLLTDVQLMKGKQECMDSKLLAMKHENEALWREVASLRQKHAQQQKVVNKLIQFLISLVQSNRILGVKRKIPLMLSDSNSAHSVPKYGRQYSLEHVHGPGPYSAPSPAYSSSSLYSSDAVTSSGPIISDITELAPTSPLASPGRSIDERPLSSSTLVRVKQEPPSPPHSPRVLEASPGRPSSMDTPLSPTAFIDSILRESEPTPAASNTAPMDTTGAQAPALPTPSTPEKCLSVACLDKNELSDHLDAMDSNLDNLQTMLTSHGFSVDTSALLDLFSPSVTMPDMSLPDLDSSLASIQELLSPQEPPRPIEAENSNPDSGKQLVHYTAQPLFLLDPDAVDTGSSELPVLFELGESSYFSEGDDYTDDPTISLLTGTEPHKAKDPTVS", "test": "inhibition of MG132-induced HSE-luciferase signal, confirmation, cell-based, NIH3T3, luminescence, dose retest (AID 2382);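 further: NIH3T3 fibroblasts with HSF1-driven luciferase reporter stressed by proteasome inhibitor MG132; luminescence from HSF1-driven luciferase expression after 8 hours of MG132 stress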", "assay_type": "functional"}, "SUMO-activating enzyme [8]": {"target": "T4, SUMO-activating enzyme (Homo sapiens, UniProt Q9UBT2)", "T4 sequence (Q9UBE0 whole entry)": "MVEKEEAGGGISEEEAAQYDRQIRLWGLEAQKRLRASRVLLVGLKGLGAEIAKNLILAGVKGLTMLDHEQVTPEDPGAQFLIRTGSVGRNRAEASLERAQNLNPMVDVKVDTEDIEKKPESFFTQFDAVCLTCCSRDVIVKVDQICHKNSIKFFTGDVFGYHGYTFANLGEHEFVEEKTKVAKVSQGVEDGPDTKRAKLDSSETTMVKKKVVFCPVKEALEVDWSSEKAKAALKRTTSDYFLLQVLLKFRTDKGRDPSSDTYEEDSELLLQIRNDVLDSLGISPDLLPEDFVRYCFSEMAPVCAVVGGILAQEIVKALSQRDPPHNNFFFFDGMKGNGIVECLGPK", "T4 sequence (Q9UBT2 whole entry)": "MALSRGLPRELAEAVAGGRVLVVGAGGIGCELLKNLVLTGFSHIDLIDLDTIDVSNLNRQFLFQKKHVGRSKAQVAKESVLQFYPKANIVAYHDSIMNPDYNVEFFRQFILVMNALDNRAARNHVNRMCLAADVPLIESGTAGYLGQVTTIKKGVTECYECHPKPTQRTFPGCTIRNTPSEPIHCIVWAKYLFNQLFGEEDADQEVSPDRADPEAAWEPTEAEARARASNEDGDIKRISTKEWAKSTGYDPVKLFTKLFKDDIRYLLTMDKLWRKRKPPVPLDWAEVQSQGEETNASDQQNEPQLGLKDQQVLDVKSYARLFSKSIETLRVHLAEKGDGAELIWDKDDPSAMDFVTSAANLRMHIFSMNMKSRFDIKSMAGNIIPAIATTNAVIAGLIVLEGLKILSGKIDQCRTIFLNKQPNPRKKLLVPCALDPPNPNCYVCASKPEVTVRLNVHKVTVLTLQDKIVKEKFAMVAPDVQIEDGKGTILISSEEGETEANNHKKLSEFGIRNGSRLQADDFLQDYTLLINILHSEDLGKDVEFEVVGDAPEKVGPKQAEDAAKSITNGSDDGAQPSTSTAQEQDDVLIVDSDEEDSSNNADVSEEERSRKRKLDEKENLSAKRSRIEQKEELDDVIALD", "test": "SUMOylation inhibitor hit validation, confirmation, SUMOylation inhibitor project, biochemical, AlphaScreen (AID 2018)", "assay_type": "functional"}, "SUMO-activating enzyme [9]": {"target": "T4, SUMO-activating enzyme", "test": "inhibitors of in vitro SUMOylation cascade, primary screen, biochemical, HTRF, uHTS (AID 2006)", "assay_type": "protein-complex assay"}, "Cytochrome P450 2C9": {"target": "Cytochrome P450 2C9 (Homo sapiens, UniProt P11712)"}, "[10]": {"target": "T5, Voltage-gated N-type calcium channel alpha-1B subunit/Amyloid beta A4 precursor protein-binding family A member 1 (Homo sapiens, UniProt Q00975+Q02410)", "T5 sequence (Q00975 whole entry)": "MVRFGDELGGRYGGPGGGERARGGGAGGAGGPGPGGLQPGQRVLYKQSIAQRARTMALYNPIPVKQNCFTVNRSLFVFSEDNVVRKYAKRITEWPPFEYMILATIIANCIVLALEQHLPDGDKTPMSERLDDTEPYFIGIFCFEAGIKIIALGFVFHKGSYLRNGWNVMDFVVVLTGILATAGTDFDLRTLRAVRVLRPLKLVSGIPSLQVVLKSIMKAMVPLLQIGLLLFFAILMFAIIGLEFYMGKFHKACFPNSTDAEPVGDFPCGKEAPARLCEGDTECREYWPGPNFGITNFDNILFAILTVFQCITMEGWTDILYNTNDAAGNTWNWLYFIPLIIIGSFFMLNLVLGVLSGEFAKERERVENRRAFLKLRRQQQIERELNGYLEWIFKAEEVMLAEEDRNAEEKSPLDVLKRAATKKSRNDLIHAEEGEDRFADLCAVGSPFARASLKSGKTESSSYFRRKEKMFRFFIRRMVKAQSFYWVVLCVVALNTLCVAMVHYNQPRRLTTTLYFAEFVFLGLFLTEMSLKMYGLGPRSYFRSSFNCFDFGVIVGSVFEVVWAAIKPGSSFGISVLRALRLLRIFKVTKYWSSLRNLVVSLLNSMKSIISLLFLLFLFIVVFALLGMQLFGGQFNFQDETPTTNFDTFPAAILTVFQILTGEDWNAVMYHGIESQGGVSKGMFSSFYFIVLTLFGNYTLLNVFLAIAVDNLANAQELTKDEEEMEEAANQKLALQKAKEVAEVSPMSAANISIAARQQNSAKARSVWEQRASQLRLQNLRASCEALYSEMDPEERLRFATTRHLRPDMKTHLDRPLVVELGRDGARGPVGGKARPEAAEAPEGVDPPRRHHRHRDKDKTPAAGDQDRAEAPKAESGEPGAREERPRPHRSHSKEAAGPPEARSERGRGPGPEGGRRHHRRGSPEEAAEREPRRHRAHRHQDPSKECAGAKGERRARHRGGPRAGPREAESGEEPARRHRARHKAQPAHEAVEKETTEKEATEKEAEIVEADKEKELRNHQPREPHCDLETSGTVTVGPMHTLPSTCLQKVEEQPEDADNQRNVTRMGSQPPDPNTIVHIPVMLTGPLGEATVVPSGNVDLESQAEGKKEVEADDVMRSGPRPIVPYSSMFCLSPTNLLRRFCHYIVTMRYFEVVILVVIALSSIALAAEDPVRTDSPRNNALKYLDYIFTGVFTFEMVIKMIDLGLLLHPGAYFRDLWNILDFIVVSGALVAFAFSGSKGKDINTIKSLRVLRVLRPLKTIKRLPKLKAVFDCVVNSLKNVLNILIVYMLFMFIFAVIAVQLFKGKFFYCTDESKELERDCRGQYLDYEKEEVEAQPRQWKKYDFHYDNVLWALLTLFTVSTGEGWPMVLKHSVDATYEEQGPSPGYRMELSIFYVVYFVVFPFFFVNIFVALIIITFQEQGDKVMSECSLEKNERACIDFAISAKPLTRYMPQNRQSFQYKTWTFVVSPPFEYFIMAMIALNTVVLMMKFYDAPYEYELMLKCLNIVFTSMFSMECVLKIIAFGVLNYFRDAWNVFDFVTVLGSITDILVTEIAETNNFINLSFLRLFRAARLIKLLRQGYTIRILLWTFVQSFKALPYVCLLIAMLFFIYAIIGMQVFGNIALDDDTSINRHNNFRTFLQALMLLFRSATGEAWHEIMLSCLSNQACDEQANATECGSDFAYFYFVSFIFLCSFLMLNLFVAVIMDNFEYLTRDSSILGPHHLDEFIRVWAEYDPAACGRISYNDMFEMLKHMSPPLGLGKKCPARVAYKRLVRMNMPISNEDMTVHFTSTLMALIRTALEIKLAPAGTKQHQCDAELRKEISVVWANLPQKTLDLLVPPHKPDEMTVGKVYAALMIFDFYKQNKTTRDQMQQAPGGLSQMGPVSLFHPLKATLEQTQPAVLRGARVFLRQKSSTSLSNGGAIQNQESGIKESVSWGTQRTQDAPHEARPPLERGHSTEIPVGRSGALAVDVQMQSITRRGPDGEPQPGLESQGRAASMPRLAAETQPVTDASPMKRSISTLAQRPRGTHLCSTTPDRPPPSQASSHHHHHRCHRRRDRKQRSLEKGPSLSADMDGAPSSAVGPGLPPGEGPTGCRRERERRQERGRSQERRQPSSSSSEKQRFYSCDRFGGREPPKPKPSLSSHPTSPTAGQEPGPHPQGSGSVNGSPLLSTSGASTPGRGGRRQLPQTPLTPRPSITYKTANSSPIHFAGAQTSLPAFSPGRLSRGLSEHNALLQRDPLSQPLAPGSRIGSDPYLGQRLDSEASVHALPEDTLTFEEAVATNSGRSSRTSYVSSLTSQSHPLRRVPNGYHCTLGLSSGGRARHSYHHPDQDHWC", "T5 sequence (Q02410 whole entry)": "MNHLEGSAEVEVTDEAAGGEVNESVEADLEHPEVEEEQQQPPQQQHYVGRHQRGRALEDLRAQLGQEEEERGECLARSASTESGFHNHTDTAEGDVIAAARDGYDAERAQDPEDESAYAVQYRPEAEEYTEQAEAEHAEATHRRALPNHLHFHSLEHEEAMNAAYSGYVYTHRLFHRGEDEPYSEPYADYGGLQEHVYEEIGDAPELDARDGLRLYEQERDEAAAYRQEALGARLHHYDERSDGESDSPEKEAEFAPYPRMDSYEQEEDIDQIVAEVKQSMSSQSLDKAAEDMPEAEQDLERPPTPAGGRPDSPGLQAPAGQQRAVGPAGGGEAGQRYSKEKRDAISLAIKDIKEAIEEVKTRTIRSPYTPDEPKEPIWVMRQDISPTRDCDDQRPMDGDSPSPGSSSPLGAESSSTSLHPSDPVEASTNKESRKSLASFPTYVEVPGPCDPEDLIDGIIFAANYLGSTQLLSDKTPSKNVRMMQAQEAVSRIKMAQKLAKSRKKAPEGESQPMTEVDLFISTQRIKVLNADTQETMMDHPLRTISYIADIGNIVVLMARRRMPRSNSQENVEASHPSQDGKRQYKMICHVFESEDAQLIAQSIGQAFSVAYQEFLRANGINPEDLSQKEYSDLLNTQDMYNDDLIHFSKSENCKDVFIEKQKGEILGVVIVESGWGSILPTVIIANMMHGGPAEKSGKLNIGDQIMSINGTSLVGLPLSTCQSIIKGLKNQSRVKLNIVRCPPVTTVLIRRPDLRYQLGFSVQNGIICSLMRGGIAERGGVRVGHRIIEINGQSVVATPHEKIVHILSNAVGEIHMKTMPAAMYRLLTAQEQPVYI", "assay_type": "protein assay"}, "[11]": {"target": "T5, Voltage-gated N-type calcium channel alpha-1B subunit/Amyloid beta A4 precursor protein-binding family A member 1", "assay_type": "protein assay", "remark": "listed apart in the source"}, "Estrogen receptor": {"target": "T6, Estrogen receptor (Homo sapiens, UniProt P03372)", "T6 sequence (P03372 whole entry)": "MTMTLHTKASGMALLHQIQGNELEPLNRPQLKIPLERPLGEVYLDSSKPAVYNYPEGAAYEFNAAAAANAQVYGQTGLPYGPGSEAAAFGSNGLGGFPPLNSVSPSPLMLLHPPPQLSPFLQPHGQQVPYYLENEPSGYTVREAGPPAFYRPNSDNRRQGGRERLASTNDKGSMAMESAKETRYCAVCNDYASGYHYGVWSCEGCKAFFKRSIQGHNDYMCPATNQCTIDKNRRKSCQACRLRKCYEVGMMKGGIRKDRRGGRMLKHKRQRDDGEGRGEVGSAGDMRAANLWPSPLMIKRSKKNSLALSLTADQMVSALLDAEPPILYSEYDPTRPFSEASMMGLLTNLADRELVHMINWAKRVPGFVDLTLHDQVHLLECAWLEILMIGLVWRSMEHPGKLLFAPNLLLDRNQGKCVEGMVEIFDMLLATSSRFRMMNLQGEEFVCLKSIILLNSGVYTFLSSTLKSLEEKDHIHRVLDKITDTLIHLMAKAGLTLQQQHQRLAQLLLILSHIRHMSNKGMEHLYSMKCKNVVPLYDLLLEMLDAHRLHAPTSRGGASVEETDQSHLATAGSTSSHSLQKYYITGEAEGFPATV"}, "[12]": {"test": "inhibitors of intracellular T. cruzi replication, confirmation, NIH3T3 host cells, beta-gal luminescence (AID 2044);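 further: luminescent beta-galactosidase reporter signal from transgenic T. cruzi replicating inside host cells; inhibitors lower the luminescence signal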", "assay_type": "functional, cell-based"}, "[13]": {"target": "Induced myeloid leukemia cell differentiation protein Mcl-1 (Homo sapiens, UniProt Q07820)", "assay_type": "functional"}, "[14]": {"test": "cytotoxicity toward NIH3T3 fibroblasts, dose response, counter-screen, cell-based, ATP luminescence, mouse fibroblasts (AID 2010);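 further: cells exposed to compound for about 90 hours before reading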", "assay_type": "functional"}},
  "note": "Activity calls are given as the source filed them.",
  "data": [
    {"smiles": "S=C(Nc1ccccc1)c1ccccn1", "values": [
      {"measurement": "EC50", "setting": "[1]", "value": "32.8 µM (active)"},
      {"measurement": "IC50", "setting": "Beta-galactosidase", "value": "> 66.6 µM (inactive)"},
      {"measurement": "EC50", "setting": "[2]", "value": "32.5 µM (active)"}
    ]},
    {"smiles": "CCCn1c(C)nc2c(NC3CCCCC3)nc(C)nc21", "values": [
      {"measurement": "AC50", "setting": "Cytochrome P450 3A4", "value": "12.6 µM (inconclusive)"}
    ]},
    {"smiles": "O=[N+]([O-])c1ccc2oc(C3CCCCC3)nc2c1", "values": [
      {"measurement": "EC50", "setting": "[3]", "value": "> 50 µM (active)"}
    ]},
    {"smiles": "COc1ccc(C2C=C(c3ccc(Br)cc3)Nc3nc(NS(C)(=O)=O)nn32)cc1", "note": "(stereo not given)", "values": [
      {"measurement": "IC50", "setting": "Bcl-2-like protein 10", "value": "> 1.56 µM (inactive)"}
    ]},
    {"smiles": "c1ccc(C2[C@H]3CN(CC4CCCCC4)[C@H](c4ccccc4)C34CC2(c2ccccc2)C4)cc1", "note": "(stereo not given in full)", "values": [
      {"measurement": "AC50", "setting": "Cytochrome P450 3A4", "value": "5.01 µM (inconclusive)"}
    ]},
    {"smiles": "Cc1ccsc1-c1nnc(S)n1CC(C)C", "values": [
      {"measurement": "IC50", "setting": "[4]", "value": "> 100 µM (inactive)"},
      {"measurement": "IC50", "setting": "[5]", "value": "5.9 µM (active)"}
    ]},
    {"smiles": "COC(=O)[C@@H]1C[C@@H]2CC[C@@H](O)C[C@@H]2N1Cc1ccc(N2CCN(C)CC2)cc1", "values": [
      {"measurement": "AC50", "setting": "Cytochrome P450 3A4", "value": "10 µM (inconclusive)"}
    ]},
    {"smiles": "CSC1=N/C(=C\\C=C\\c2cccs2)C(=O)S1", "values": [
      {"measurement": "AC50", "setting": "[6]", "value": "3.5 µM (active)"},
      {"measurement": "IC50", "setting": "Nonstructural protein 1", "value": "69.4 µM (active)"},
      {"measurement": "EC50", "setting": "[7]", "value": "0.853 µM (active)"}
    ]},
    {"smiles": "N=c1c(S(=O)(=O)c2ccc(Br)cc2)cc2c(=O)n3ccccc3nc2n1Cc1ccco1", "values": [
      {"measurement": "IC50", "setting": "SUMO-activating enzyme [8]", "value": "3.92 µM (active)"},
      {"measurement": "IC50", "setting": "SUMO-activating enzyme [9]", "value": "4.16 µM (active)"}
    ]},
    {"smiles": "c1ccc2cc(-c3csnn3)ccc2c1", "values": [
      {"measurement": "AC50", "setting": "[6]", "value": "75.6 µM (active)"},
      {"measurement": "AC50", "setting": "Cytochrome P450 2C9", "value": "14.1 µM (inconclusive)"}
    ]},
    {"smiles": "CCOc1ccc(NC(=O)c2ccc(NC(=O)c3ccc(CN4CCOCC4)cc3)cc2)cc1", "values": [
      {"measurement": "IC50", "setting": "[10]", "value": "10.1 µM (active)"},
      {"measurement": "IC50", "setting": "SUMO-activating enzyme [8]", "value": "22.4 µM (active)"},
      {"measurement": "IC50", "setting": "SUMO-activating enzyme [9]", "value": "25.1 µM (active)"},
      {"measurement": "IC50", "setting": "[11]", "value": "> 50 µM (inactive)"}
    ]},
    {"smiles": "CCOC(=O)c1ccc(NC(=O)CSc2nnc(CNc3ccc(OC)cc3)n2C)cc1", "values": [
      {"measurement": "IC50", "setting": "Estrogen receptor", "value": "> 50 µM (not active)"}
    ]},
    {"smiles": "Cc1cccc(-c2nc(Nc3ccc(N4CCOCC4)cc3)c3ccccc3n2)c1", "values": [
      {"measurement": "EC50", "setting": "[12]", "value": "1.23 µM (active)"},
      {"measurement": "IC50", "setting": "[13]", "value": "> 54 µM (active)"},
      {"measurement": "EC50", "setting": "[14]", "value": "> 60 µM (not active)"}
    ]}
  ]
}
